Biological target: T1, full length p110α/p85α (Homo sapiens, UniProt P42336)
T1 construct: Full-length human p110α was expressed either in a complex with full-length human p85α (for HTS, biochemistry and HDX-MS); 6xHis tag followed by TEV protease site (N); host or cells: Spodoptera frugiperda Sf9, baculovirus
Test: HDX-MS
Type: binding
Description: Sample preparation: HDX-MS experiments were carried out as described previously. […] In total, three biological replicates, i.e. three separate protein preparations, each with exchange experiments carried out in triplicate were conducted. Data presented in the manuscript is a single biological replicate. Data acquisition and analysis were as follows: Each sample was thawed and injected onto an M-Class Acquity UPLC with HDX Technology (Waters) kept at 0.1°C. Proteins were digested in-line using an Enzymate Pepsin Column (Waters, #186007233) at 15°C for 2 min at 200 μl/min. Peptic peptides were then eluted onto an Acquity UPLC BEH C18 Column (Waters, #186002346) equilibrated in Pepsin-A buffer (0.1% formic acid) and separated using a 5-35% gradient of Pepsin-B buffer (0.1% formic acid, 99% acetonitrile) over 7 min at a flowrate of 40 μl/min. Data were collected on a Waters Cyclic IMS, with an electrospray ionisation source, from 50-2000 m/z. Data were collected in the HDMS^E mode. A single pass of the cyclic IMS was conducted. A “blank” sample of protein dilution buffer with quench was run between samples, and carry-over of peptides was routinely monitored. Five replicates were used to identify non-deuterated peptides. Criteria used to include peptides in the HDX-MS dataset were: minimum intensity 5000, minimum sequence length 5, maximum sequence length 25, a minimum of 3 fragment ions, a minimum of 0.1 products per amino acid, a minimum score of 6.62, a maximum MH+ Error of 10 ppm, identification in at least two datasets with a retention time RSD of less than 10%. Data was analysed using Protein Lynx Global Server (Waters) and DynamX (Waters). All peptides were manually inspected for EX1 kinetics and sufficient quality of the peptide envelope. Data quality, experiment design, and reporting of data meets the criteria as determined by the HDX-MS community. Uptake files were created using Baryonyx. Data are available via ProteomeXchange with identifier PXD037721.

[1] = PK3CA_HUMAN peptide 177-186, time point 1 of 5
[2] = PK3CA_HUMAN peptide 177-186, time point 2 of 5
[3] = PK3CA_HUMAN peptide 177-186, time point 3 of 5
[4] = PK3CA_HUMAN peptide 177-186, time point 4 of 5
[5] = PK3CA_HUMAN peptide 177-186, time point 5 of 5
[6] = PK3CA_HUMAN peptide 186-202, time point 1 of 5
[7] = PK3CA_HUMAN peptide 186-202, time point 2 of 5
[8] = PK3CA_HUMAN peptide 186-202, time point 3 of 5
[9] = PK3CA_HUMAN peptide 186-202, time point 4 of 5
[10] = PK3CA_HUMAN peptide 186-202, time point 5 of 5
[11] = PK3CA_HUMAN peptide 207-219, time point 1 of 5
[12] = PK3CA_HUMAN peptide 207-219, time point 2 of 5
[13] = PK3CA_HUMAN peptide 207-219, time point 3 of 5
[14] = PK3CA_HUMAN peptide 207-219, time point 4 of 5
[15] = PK3CA_HUMAN peptide 207-219, time point 5 of 5
[16] = PK3CA_HUMAN peptide 220-237, time point 1 of 5
[17] = PK3CA_HUMAN peptide 220-237, time point 2 of 5
[18] = PK3CA_HUMAN peptide 220-237, time point 3 of 5
[19] = PK3CA_HUMAN peptide 220-237, time point 4 of 5
[20] = PK3CA_HUMAN peptide 220-237, time point 5 of 5
[21] = PK3CA_HUMAN peptide 224-238, time point 1 of 5
[22] = PK3CA_HUMAN peptide 224-238, time point 2 of 5
[23] = PK3CA_HUMAN peptide 224-238, time point 3 of 5
[24] = PK3CA_HUMAN peptide 224-238, time point 4 of 5
[25] = PK3CA_HUMAN peptide 224-238, time point 5 of 5
[26] = PK3CA_HUMAN peptide 238-250, time point 1 of 5
[27] = PK3CA_HUMAN peptide 238-250, time point 2 of 5
[28] = PK3CA_HUMAN peptide 238-250, time point 3 of 5
[29] = PK3CA_HUMAN peptide 238-250, time point 4 of 5
[30] = PK3CA_HUMAN peptide 238-250, time point 5 of 5
[31] = PK3CA_HUMAN peptide 238-259, time point 1 of 5
[32] = PK3CA_HUMAN peptide 238-259, time point 2 of 5
[33] = PK3CA_HUMAN peptide 238-259, time point 3 of 5
[34] = PK3CA_HUMAN peptide 238-259, time point 4 of 5
[35] = PK3CA_HUMAN peptide 238-259, time point 5 of 5
[36] = PK3CA_HUMAN peptide 241-250, time point 1 of 5
[37] = PK3CA_HUMAN peptide 241-250, time point 2 of 5

T1 sequence (P42336 whole entry): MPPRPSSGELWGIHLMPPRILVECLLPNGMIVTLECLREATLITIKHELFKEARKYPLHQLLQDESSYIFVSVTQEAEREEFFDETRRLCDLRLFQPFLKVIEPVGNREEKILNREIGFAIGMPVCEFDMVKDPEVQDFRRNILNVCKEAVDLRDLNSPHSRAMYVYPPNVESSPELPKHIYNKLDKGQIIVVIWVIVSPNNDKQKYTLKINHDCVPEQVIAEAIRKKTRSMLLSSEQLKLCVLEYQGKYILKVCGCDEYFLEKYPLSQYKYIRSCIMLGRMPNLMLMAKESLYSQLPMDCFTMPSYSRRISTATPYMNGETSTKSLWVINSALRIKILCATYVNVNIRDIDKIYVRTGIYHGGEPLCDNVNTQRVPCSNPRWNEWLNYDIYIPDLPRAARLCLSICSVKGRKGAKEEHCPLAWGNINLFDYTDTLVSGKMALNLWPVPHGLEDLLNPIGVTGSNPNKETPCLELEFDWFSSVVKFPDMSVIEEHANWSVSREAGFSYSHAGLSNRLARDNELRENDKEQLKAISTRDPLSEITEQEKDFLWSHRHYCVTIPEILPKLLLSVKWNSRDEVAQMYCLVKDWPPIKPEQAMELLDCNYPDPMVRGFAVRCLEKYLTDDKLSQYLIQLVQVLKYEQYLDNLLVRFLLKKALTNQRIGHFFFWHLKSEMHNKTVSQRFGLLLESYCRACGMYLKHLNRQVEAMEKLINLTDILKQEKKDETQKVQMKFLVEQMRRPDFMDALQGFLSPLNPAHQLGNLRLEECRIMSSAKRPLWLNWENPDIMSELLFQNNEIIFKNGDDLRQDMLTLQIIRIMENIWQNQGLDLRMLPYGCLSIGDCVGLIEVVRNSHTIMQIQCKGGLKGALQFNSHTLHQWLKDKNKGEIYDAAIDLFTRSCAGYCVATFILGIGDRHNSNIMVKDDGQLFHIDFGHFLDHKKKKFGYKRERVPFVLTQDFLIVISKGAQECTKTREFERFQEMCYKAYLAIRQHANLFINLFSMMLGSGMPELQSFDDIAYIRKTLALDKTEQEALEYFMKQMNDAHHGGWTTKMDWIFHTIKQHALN
T1 sequence (P27986 whole entry partner): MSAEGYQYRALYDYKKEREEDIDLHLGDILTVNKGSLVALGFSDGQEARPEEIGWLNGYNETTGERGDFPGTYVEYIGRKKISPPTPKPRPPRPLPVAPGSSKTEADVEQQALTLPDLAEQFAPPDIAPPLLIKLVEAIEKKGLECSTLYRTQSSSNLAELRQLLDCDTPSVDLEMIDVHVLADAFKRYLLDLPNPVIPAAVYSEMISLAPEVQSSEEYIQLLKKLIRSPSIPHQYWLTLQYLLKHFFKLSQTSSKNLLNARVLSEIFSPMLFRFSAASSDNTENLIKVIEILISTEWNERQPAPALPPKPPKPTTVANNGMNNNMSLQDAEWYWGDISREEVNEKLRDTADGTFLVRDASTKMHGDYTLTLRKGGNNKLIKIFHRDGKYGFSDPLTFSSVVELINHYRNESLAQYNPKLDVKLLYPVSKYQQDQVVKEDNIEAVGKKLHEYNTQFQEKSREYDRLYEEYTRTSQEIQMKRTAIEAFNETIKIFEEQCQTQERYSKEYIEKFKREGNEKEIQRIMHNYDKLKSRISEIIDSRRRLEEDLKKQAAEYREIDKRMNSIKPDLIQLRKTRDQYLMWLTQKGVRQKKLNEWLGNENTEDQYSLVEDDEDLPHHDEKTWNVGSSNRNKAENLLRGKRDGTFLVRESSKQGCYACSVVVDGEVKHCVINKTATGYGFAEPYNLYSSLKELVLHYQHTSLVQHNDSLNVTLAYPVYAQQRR

With CCN1CCN(c2ccc(Nc3cc(Nc4cccc5c4N(C(C)=O)CC5)ccn3)cc2)CC1 [Compound 1938] the “changes in HDX-MS protection of PI3Kα” value (250 μM 1938 or 5 μM BYL719) was “protection of a region in the C-terminus of the kinase domain consisting of amino acids (AA) 1002-1016 of p110α”, the “HDX difference (%D)” value [1] was -1.1% and the “HDX difference (Da)” value [1] was -0.10 Da. For the same molecule, the “HDX difference (%D)” value [2] was 0.188%, the “HDX difference (Da)” value [2] was 0.0169 Da and the “HDX difference (%D)” value [3] was 0.0654%. For the same molecule, the “HDX difference (Da)” value [3] was 0.00589 Da, the “HDX difference (%D)” value [4] was -0.325% and the “HDX difference (Da)” value [4] was -0.03 Da. For the same molecule, the “HDX difference (%D)” value [5] was -0.186%, the “HDX difference (Da)” value [5] was -0.0168 Da and the “HDX difference (%D)” value [6] was -0.741%. For the same molecule, the “HDX difference (Da)” value [6] was -0.10 Da, the “HDX difference (%D)” value [7] was 0.268% and the “HDX difference (Da)” value [7] was 0.0349 Da. The “HDX difference (%D)” value [8] was 0.253%, the “HDX difference (Da)” value [8] was 0.0328 Da and the “HDX difference (%D)” value [9] was -0.11%. For the same molecule, the “HDX difference (Da)” value [9] was -0.0143 Da, the “HDX difference (%D)” value [10] was -0.0482% and the “HDX difference (Da)” value [10] was -0.00626 Da. For the same molecule, the “HDX difference (%D)” value [11] was -0.6%, the “HDX difference (Da)” value [11] was -0.07 Da and the “HDX difference (%D)” value [12] was 0.1%. For the same molecule, the “HDX difference (Da)” value [12] was 0.0108 Da, the “HDX difference (%D)” value [13] was 0.0043% and the “HDX difference (Da)” value [13] was 0.000474 Da. For the same molecule, the “HDX difference (%D)” value [14] was -0.136%, the “HDX difference (Da)” value [14] was -0.0149 Da and the “HDX difference (%D)” value [15] was -0.4%. For the same molecule, the “HDX difference (Da)” value [15] was -0.0435 Da, the “HDX difference (%D)” value [16] was -0.3% and the “HDX difference (Da)” value [16] was -0.0451 Da. For the same molecule, the “HDX difference (%D)” value [17] was 0.0936%, the “HDX difference (Da)” value [17] was 0.014 Da and the “HDX difference (%D)” value [18] was 0.319%. The “HDX difference (Da)” value [18] was 0.05 Da, the “HDX difference (%D)” value [19] was -0.0933% and the “HDX difference (Da)” value [19] was -0.014 Da. For the same molecule, the “HDX difference (%D)” value [20] was -0.152%, the “HDX difference (Da)” value [20] was -0.0229 Da and the “HDX difference (%D)” value [21] was -0.8%. For the same molecule, the “HDX difference (Da)” value [21] was -0.0951 Da, the “HDX difference (%D)” value [22] was 0.43% and the “HDX difference (Da)” value [22] was 0.05 Da. The “HDX difference (%D)” value [23] was 0.056%, the “HDX difference (Da)” value [23] was 0.00672 Da and the “HDX difference (%D)” value [24] was 0.37%. For the same molecule, the “HDX difference (Da)” value [24] was 0.0444 Da, the “HDX difference (%D)” value [25] was 0.9% and the “HDX difference (Da)” value [25] was 0.11 Da. The “HDX difference (%D)” value [26] was -0.317%, the “HDX difference (Da)” value [26] was -0.038 Da and the “HDX difference (%D)” value [27] was 0.158%. For the same molecule, the “HDX difference (Da)” value [27] was 0.019 Da, the “HDX difference (%D)” value [28] was 0.185% and the “HDX difference (Da)” value [28] was 0.0222 Da. The “HDX difference (%D)” value [29] was -0.357%, the “HDX difference (Da)” value [29] was -0.0429 Da and the “HDX difference (%D)” value [30] was 0.02%. For the same molecule, the “HDX difference (Da)” value [30] was 0.00239 Da, the “HDX difference (%D)” value [31] was -0.7% and the “HDX difference (Da)” value [31] was -0.15 Da. For the same molecule, the “HDX difference (%D)” value [32] was 0.262%, the “HDX difference (Da)” value [32] was 0.0549 Da and the “HDX difference (%D)” value [33] was 0.265%. The “HDX difference (Da)” value [33] was 0.0556 Da, the “HDX difference (%D)” value [34] was -0.134% and the “HDX difference (Da)” value [34] was -0.0282 Da. The “HDX difference (%D)” value [35] was -0.22%, the “HDX difference (Da)” value [35] was -0.0463 Da and the “HDX difference (%D)” value [36] was -0.43%. The “HDX difference (Da)” value [36] was -0.04 Da, the “HDX difference (%D)” value [37] was 0.2% and the “HDX difference (Da)” value [37] was 0.0181 Da.
